US20080280810A1, “PEPTIDES HAVING AFFINITY FOR BODY SURFACES” (priority 2006, published 2008)

Legend:
[1] = Co-application of multi-block peptide with semi-permanent dye (Arianor Ebony), color retention; parameters: species or system human; key: ΔE of peptide sample minus peptide-free control; larger = better retention; settings: difference in Delta E between peptide sample and peptide free control after 3 embrocation cycles (about 12 manual shampoos); pH 8.5-9.0; >2 benefit, >4 substantial benefit
Procedure: (§1) A 0.5% aqueous solution of Arianor Ebony (Sensient Technologies Corp, Milwaukee, Wis.) containing 3% benzyl alcohol and 0.05% diazolidinyl urea (biocide) was prepared. Dye insolubles were removed by filtration and the pH of the dye solution was adjusted to 8.50-9.0, using ethanolamine.
(§2) Approximately 1 mL of the dye solution was added to selected wells of a 24-well plate (Thomson Instrument Co., Oceanside, Calif.; part # 931565). A multi-block peptide (see Table 12) was dissolved in a solution consisting of 3 wt % benzyl alcohol and 95 wt % water to yield a peptide concentration of 2 wt % or approximately 20 mg/mL. The pH was adjusted to 8.5-9.0 using ethanolamine. The peptide solution was then pipetted into test wells containing dye solution in the amount of 1 mL or 0.2 mL respectively. The total volume in each test well was then adjusted to 2 mL where necessary using 3% aqueous benzyl alcohol (pH adjusted to 8.5-9.0 with ethanolamine). Peptide free controls consisted of 1 mL of dye solution diluted to 2 mL with the pH adjusted aqueous benzyl alcohol solution.
(§3) Baseline […] readings were made on one inch long tresses (see below) using an X-RITE® SP78™ Sphere Spectrophotometer (X-Rite, Inc., Grandville, Mich.), by placing the hair tress into the photosensor and calculating L*, a* and b* parameters representing the photometer response. All measurements were the average of three individual determinations.
(§4) The tresses (potted on one end with resin) of natural white, 85% gray or regular bleached hair (International Hair Importers and Products, Bellerose, N.Y.) were immersed in the peptide/dye solution and the entire well plate was agitated on a VORTEX-GENIE® 2 Mixer (Scientific Industries, Bohemia, N.Y.) at a speed setting of 1 for 30 minutes. The tresses were removed from the wells, rinsed for 30 seconds under flowing deionized water and then air dried.
(§5) The following complement of beads was then added to each well containing a hair tress: (8 beads in all; 4 Novagen Coli Rollers Plating Beads—sterilized (EMD Biosciences, San Diego, Calif.; Catalog No. 71013), 2 BioSpec 6.35 mm glass beads (BioSpec Products, Bartlesville, Okla.; Catalog No. 11079635), and 2 BioSpec 3.2 mm Stainless Steel Bead (Catalog No. 11079132ss).
(§6) Then 2.5 mL of aqueous 50% Pantene Pro V® shampoo (Proctor & Gamble Co., Cincinnati, Ohio) was pipetted into each well. The plate was placed on a VWR® VX-2500 Multi-tube Vortexer (VWR, West Chester, Pa.) for 5 minutes to simulate shampooing with embrocation. The hair tresses were then rinsed under flowing deionized water and air dried. This cycle was repeated two more times except that the length of time was 10 minutes for both subsequent embrocation cycles. (This treatment was previously determined to simulate approximately 12 manual shampoo cycles.) At the conclusion of the third embrocation cycle L*, a* and b* values were measured and Delta E values (ΔE) were calculated using equation 1 below:
(§7) where L*=the lightness variable and a* and b* are the chromaticity coordinates of CIELAB colorspace as defined by the International Commission of Illumination (CIE) (Minolta, Precise Color Communication—Color Control From Feeling to Instrumentation, Minolta Camera Co., 1996).
(§8) The Delta E value (ΔE) indicates color retention relative to the non-dyed hair and larger Delta E values indicate better performance. Values listed in the table represent the difference in Delta E values between the peptide-containing sample and the peptide free control. This difference is indicative of color retention after shampoo or water rinse treatments and positive values indicate better performance relative to the peptide free controls (Table 12).

[2] = as above; parameters: species or system human; settings: difference in Delta E between peptide sample and peptide free control after 3 embrocation cycles (about 12 manual shampoos); pH 8.5-9.0; >2 benefit, >4 substantial benefit
Procedure: as §1, §2, §3, §4, §5, §6, §7, §8

[3] = Phage ELISA on pellicle coated HAP disks; type: binding, human; settings: over 10^10 pfu purified phage, anti-M13 HRP conjugate, TMB, no phage control 0.218
Procedure: A total of 20 selected phage candidates (Example 29) were used in a phage ELISA experiment. Purified phage lysates were used for binding to pellicle HAP disks using an anti-M13 phage antibody conjugated to horseradish-peroxidase, followed by the addition of chromogenic agent TMB, obtained from Pierce Biotechnology (Rockford, Ill.). The plates were read at A450 nm.
For each phage candidate to be tested, the pellicle coated HAP disks (3 mm diameter) was incubated for 1 h at room temperature with 200 μL of blocking buffer, consisting of 2% non-fat dry milk (Schleicher & Schuell, Inc.) in TBS. The blocking buffer was removed by aspirating the liquid out of each tube. The tube was rinsed 6 times with wash buffer consisting of TBST-0.05%. The wells were filled with 200 μL of TBST-0.5% containing 1 mg/mL BSA (bovine serum albumin) and then 10 μL (over 10^10 pfu) of purified phage stock was added. The samples were incubated at room temperature for 60 min with slow shaking. The non-binding phage were removed by washing 6 times with TBST-0.5%. Then, 100 μL of horseradish peroxidase/anti-M13 antibody conjugate (Amersham USA, Piscataway, N.J.), diluted 1:500 in the blocking buffer, was added and incubated for 1 h at room temperature. The conjugate solution was removed and was washed 6 times with TBST-0.5%. TMB (3,3′,5,5′-tetramethylbenzidine) substrate (200 μL), obtained from Pierce Biotechnology (Rockford, Ill.) was added to each well and the color was allowed to develop for 5 to 30 min, typically for 10 min, at room temperature. Then, stop solution (200 μL of 2 M H2SO4) was added to each well and the solution was transferred to a 96-well plate and the A450 was measured using a microplate spectrophotometer (Molecular Devices, Sunnyvale, Calif.).

[4] = HPLC analysis of peptide uptake by hair; type: binding, human; settings: 20 mM Tris pH 7.2, 0.15 M NaCl, room temperature, no dye; peptide 0.1 mg/mL (IB5A, A5) or 0.05 mg/mL (HC 71, HC 74)
Procedure: The purpose of this Example was to compare the speed of uptake by measuring the amount of various peptides including peptides of the invention bound to hair at different time points using a high performance liquid chromatography (HPLC) method. The peptides, HC 71, HC 74, IB5 (the hair-binding peptide sequence in HC 71), and A5 (the hair-binding peptide sequence in HC 74), were dissolved in 10 mL of 20 mM Tris, pH 7.2 buffer containing 0.15 M NaCl to give the peptide concentrations shown in Table 11. Natural white hair, 0.54 g, (International Hair Importers & Products Inc., Bellerose, N.Y.) was pre-equilibrated with 10 mL of Tris buffer for 30 min with mixing at room temperature. Then, the buffer was drained from the hair and 10 mL of one of the peptide solutions was added. The hair was incubated with the peptide solution at room temperature without mixing and samples were taken at 0, 30 and 60 min for HPLC analysis. For peptide uptake measurements in the presence of Acid Red 33 dye, the peptide solution was mixed 1:1 with an aqueous solution of the dye (0.5 wt %). Natural white hair (0.65 g) pre-wet with deionized water, was added to the peptide solutions and the solutions were incubated at room temperature without mixing. Samples were taken at time 0, 30, and 60 min for analysis by HPLC. The samples were analyzed using HPLC to determine the concentration of the peptide remaining in solution, and by difference, the amount of peptide taken up by the hair. The HPLC analysis was done using an Agilent liquid chromatograph (Agilent Technologies Inc., Wilmington, Del.) with a 5 μm Zorbax Eclipse XDB-C18 column (Agilent Technologies Inc.). The sample was diluted with distilled water containing 0.1% trifluoroacetic acid (typically a 10-fold dilution), and 5 to 50 μL was injected using a 100 μL injection loop. A solvent gradient elution was used with two solvents: Solvent A, consisting of acetonitrile with 0.1% aqueous trifluoracetic acid, and Solvent B, consisting of water with 0.1% trifluoroacetic acid. The gradient was from 10% acetonitrile to 80% acetonitrile at a rate of 1%/min over a period of 70 min. The flow rate was 1.25 mL/min. Detection was done with a photodiode array detector at 218 nm, 230 nm, and 278 nm.

A5-EGEGER (EQISGSLVAAPWEGEGER; Peptide having affinity for hair) [Peptide A5-EGEGER]
ΔE Retention Ebony Dye Regular Bleached Hair [1]: −1.0 | ΔE Retention Ebony dye with Natural White Hair [1]: 5.7 | ΔE Retention Ebony Dye with 85% Gray Hair [2]: 3.7

A5-KRKRKD (EQISGSLVAAPWKRKRKD; Peptide having affinity for hair) [Peptide A5-KRKRKD]
ΔE Retention Ebony Dye Regular Bleached Hair [1]: 1.09 | ΔE Retention Ebony dye with Natural White Hair [1]: 5.8 | ΔE Retention Ebony Dye with 85% Gray Hair [2]: −0.59

AHPESLGIKYALDGNSDPHA [Pell 1]
O.D. at 450 nm [3]: 0.739

ASVSNYPPIHHLATSNTTVN [Pell 2]
O.D. at 450 nm [3]: 0.75

DECMEPLNAAHCWR [Pell 3]
O.D. at 450 nm [3]: 0.49

DECMHGSDVEFCTS [Pell 4]
O.D. at 450 nm [3]: 0.664

DLCSMQMMNTGCHY [Pell 5]
O.D. at 450 nm [3]: 0.83

DLCSSPSTWGSCIR [Pell 6]
O.D. at 450 nm [3]: 0.735

DPNESNYENATTVSQPTRHL [Pell 7]
O.D. at 450 nm [3]: 0.831

EPTHPTMRAQMHQSLRSSSP [Pell 8]
O.D. at 450 nm [3]: 0.712

EQISGSLVAAPW (Hair-Binding Peptide) [Peptide A5, reference compound]
% Uptake time = 0 min [4]: 0% | % Uptake time = 30 min [4]: 2% | % Uptake time = 60 min [4]: 4%

F4-KRKRKD (LDTSFHQVPFHQKRKRKD; Peptide having affinity for hair) [Peptide F4-KRKRKD]
ΔE Retention Ebony Dye Regular Bleached Hair [1]: −2.66 | ΔE Retention Ebony dye with Natural White Hair [1]: 0.12 | ΔE Retention Ebony Dye with 85% Gray Hair [2]: 2.87

GNTDTTPPNAVMEPTVQHKW [Pell 9]
O.D. at 450 nm [3]: 0.755

IB5-KRKRKD (TPPELLHGDPRSKRKRKD; Peptide having affinity for hair)
ΔE Retention Ebony Dye Regular Bleached Hair [1]: −0.44 | ΔE Retention Ebony dye with Natural White Hair [1]: 4.49 | ΔE Retention Ebony Dye with 85% Gray Hair [2]: 1.2

KF11-EGEGED (NTSQLSTEGEGED; Peptide having affinity for hair)
ΔE Retention Ebony Dye Regular Bleached Hair [1]: −4.05 | ΔE Retention Ebony dye with Natural White Hair [1]: 3.6 | ΔE Retention Ebony Dye with 85% Gray Hair [2]: 0.94

LDTSFHQVPFHQ (Peptide having affinity for hair) [Peptide F4, reference compound]
ΔE Retention Ebony Dye Regular Bleached Hair [1]: 0.95 | ΔE Retention Ebony dye with Natural White Hair [1]: 5.17 | ΔE Retention Ebony Dye with 85% Gray Hair [2]: 3.24

NGPDMVQSVGKHKNS [Pell 10]
O.D. at 450 nm [3]: 0.729

NGPEVRQIPANFEKL [Pell 11]
O.D. at 450 nm [3]: 0.607

NNTSADNPPETDSKHHLSMS [Pell 12]
O.D. at 450 nm [3]: 0.521

NNTWPEGAGHTMPSTNIRQA [Pell 13]
O.D. at 450 nm [3]: 0.598

NPTATPHMKDPMHSNAHSSA [Pell 14]
O.D. at 450 nm [3]: 0.7

NPTDHIPANSTNSRVSKGNT [Pell 15]
O.D. at 450 nm [3]: 0.567

NPTDSTHMMHARNHE [Pell 16]
O.D. at 450 nm [3]: 0.578

P-KRGRHKRPKRHK-GGG-IB5A-C (PKRGRHKRPKRHKGGGTPPELLHGAPRSC; Peptide having affinity for hair) [HC100]
ΔE Retention Ebony Dye Regular Bleached Hair [1]: −0.27 | ΔE Retention Ebony dye with Natural White Hair [1]: −4.5 | ΔE Retention Ebony Dye with 85% Gray Hair [2]: 4.1

TPCAPASFNPHCSR [Pell 18]
O.D. at 450 nm [3]: 0.416

TPCATYPHFSGCRA [Pell 19]
O.D. at 450 nm [3]: 0.731

TPPELLHGAPRS (Hair-binding peptide) [IB5A, reference compound]
% Uptake time = 0 min [4]: 0% | % Uptake time = 30 min [4]: 8%

WCTDFCTRSTPTSTSRSTTS [Pell 20]
O.D. at 450 nm [3]: 0.715
